Like-named read-outs stand apart in the source and are kept apart here. Values belong to the molecule of their own block, whether it stands above or below them.
Legend:
[1] = test system: plated rat hepatocytes; experiment: Pitavastatin uptake in plated rat hepatocytes with and without rifamycin SV (positive control for transporter activity); type: in vitro ADME; conditions: 100 μM rifamycin SV; pitavastatin 0.2 μM; mean (CV 23%)
Procedure: (§1) Male adult Sprague-Dawley rats (Charles River, Margate, Kent, UK) were housed in groups of two in individually ventilated cages with free access to food (Chow rat and mouse diet) and fresh drinking water. The designated rat housing facility maintained a controlled temperature (20 ± 3 °C), humidity (40–70%), and 12 h light/dark cycle conditions. All animal protocols were approved by the University of Manchester review committee and adhered to the UK Home Office Animals (Scientific Procedures) Act (1986). Rats (250–300 g) were sacrificed using CO2 overdose followed by cervical dislocation in the morning of the study day. The kinetics experiment, as described below, was performed using n = 4 animals. […] Following sample preparation including addition of internal standard (Table S1), gadoxetate and pitavastatin in cell samples, and gadoxetate in media samples, were quantified by liquid chromatography–tandem mass spectrometry (LC–MS/MS). LC–MS/MS quantification was performed using selective reaction monitoring (SRM) against calibration standards; only standards within 30% of nominal concentration were included. The protein content of plated rat hepatocytes was measured using the Pierce BCA Protein Assay Kit (Thermo Fisher Scientific, Paisley, UK). […]

[2] = as above; type: in vitro ADME; conditions: male, Sprague-Dawley, rat, plated primary rat hepatocytes; pitavastatin 0.2 μM, absence of rifamycin SV, 0.5-2 min; mean (CV 24%); read-out: Unbound intrinsic uptake clearance (CLint,u)
Procedure: as §1

[3] = test system: active uptake transport of gadoxetate into the liver; experiment: Simultaneous PBPK fitting of gadoxetate DCE-MRI data in control and rifampicin phases; type: in vivo, rat; conditions: Rattus norvegicus
Procedure: DCE–MRI data generated using the 3D Fast Low Angle Shot RF-spoiled gradient echo sequence (FLASH) protocol in male Wistar-Han rats were used for assessing the PBPK IVIVE performances and for obtaining some of the PBPK parameters within the bottom-up and top-down approaches, respectively. The DCE–MRI data were acquired in a multicenter study at two magnetic field strengths, 4.7 and 7 T. Gadoxetate was administered at a dose of 25 μmol/kg, either alone or 1 h after IV administration of 10 mg/kg rifampicin. When gadoxetate was administered alone (control arm), 43 profiles of blood, spleen, and liver measured at a field strength of 4.7 T and 52 profiles of blood, spleen, and liver measured at 7 T were available. In the case of gadoxetate administered with rifampicin, 7 blood, spleen, and liver profiles at a field strength equal to 4.7 T and 6 at 7 T were available. All gadoxetate DCE–MRI data and study protocols are detailed in a companion paper (Hines et al. in submission).
The DCE–MRI data used in this study were reported as ΔR1. Therefore, the relationship between the compartmental concentrations represented by the PBPK model state variables and the ΔR1 measurements for the blood, liver, and spleen needed to be described. The linear relationship in eq 4 is not valid for ΔR1 of the liver, ΔR1,liv, because intracellular and extracellular tissue compartments have different relaxivities. To derive ΔR1,liv, a volume fraction-weighted mean of the contributions of the gadoxetate concentration in all the compartments used to model the liver was performed.[40] In the spleen, the entire distribution space was supposed to have the same relaxivity as blood and, therefore, eq 4 can be applied directly to derive spleen concentrations from ΔR1,spl. Concerning the blood, the blood value for r1 in Table 1 allows ΔR1,b to be directly related to the blood concentration. The relations between ΔR1,liv, ΔR1,spl, and ΔR1,b and the concentrations of the PBPK compartments are shown in eq 7. [drawing 7] 7 cspl,extr is the extracellular concentration in the spleen and Vspl,extr is the extracellular volume of the spleen and Vliv and Vspl are the whole volumes of liver and spleen. r1,liv,extr and r1,spl,extr were assumed to be equal to r1,b, as described in Hines et al.
In fact, each of the data are acquired during a time interval Δt, which was 57 s in the current dataset. To account for this characteristic when performing the parameter estimation, the residuals were calculated as the difference of the observed ΔR1 corresponding to a given time interval minus the mean of the simulated PBPK ΔR1 within the same interval, as explained in the Supporting Information, Section 4.
The extent of interaction with rifampicin was estimated by performing a simultaneous fitting of gadoxetate ΔR1 in the control and inhibitory phase. In this analysis, PS was considered the same for both phases, whereas the other parameters were separately estimated in the absence (CLactive and CLbiliary) and in the presence of rifampicin (CLactive,inh and CLbiliary,inh). CLbiliary,inh was considered to account for possible inhibition of Mrp2 in rat by rifampicin, as previously reported.[45] To understand the impact of the inclusion of the liver-imaging data on the parameter optimization, the simultaneous estimation was also performed considering only the blood data.
All the PBPK analyses were performed in MATLAB R2020a,[50] the ordinary differential equations were solved with the function “ode15s”, while the parameter optimization was performed with the function “lsqnonlin”. The uncertainty of the parameters estimate was evaluated with the case-bootstrap,[51] using 1000 samples.

SMILES: CO[C@H]1/C=C/O[C@@]2(C)Oc3c(C)c(O)c4c(O)c(cc(O)c4c3C2=O)NC(=O)/C(C)=C\C=C\[C@H](C)[C@H](O)[C@@H](C)[C@@H](O)[C@@H](C)[C@H](OC(C)=O)[C@@H]1C [rifamycin SV]
- reduction of the uptake of pitavastatin [1]: 54%

- hepatocyte CLint at 0.2 μM [2]: 95.7 µL/min/1e6 cells
SMILES: O=C(O)C[C@H](O)C[C@H](O)/C=C/c1c(C2CC2)nc2ccccc2c1-c1ccc(F)cc1 [pitavastatin]

SMILES: CO[C@H]1/C=C/O[C@@]2(C)Oc3c(C)c(O)c4c(O)c(c(/C=N/N5CCN(C)CC5)c(O)c4c3C2=O)NC(=O)/C(C)=C\C=C\[C@H](C)[C@H](O)[C@@H](C)[C@@H](O)[C@@H](C)[C@H](OC(C)=O)[C@@H]1C [rifampicin]
- inhibition at 10 mg/kg ([3]; iv, rifampicin i.v. 10 mg/kg, fit with blood, spleen and liver data, read-out: inhibition of gadoxetate CLactive (active uptake into the liver)): 96%
- inhibition at 10 mg/kg ([3]; rifampicin 10 mg/kg, only blood ΔR1 profiles (without liver data), read-out: inhibition of gadoxetate CLactive, blood ΔR1 only): 84%

Reference: paper PMC8397403, “Physiologically Based Pharmacokinetic Modeling of Transporter-Mediated Hepatic Disposition of Imaging Biomarker Gadoxetate in Rats” (Molecular Pharmaceutics, 2021)
